Publication PMC12373846, “Hemoglobin as a pseudoperoxidase and drug target for oxidative stress-related diseases” (Signal Transduction and Targeted Therapy, 2025)
Read-outs that look alike come from different tables or passages of the source.

Legend:
Hb = biological target: T1, Hb (Homo sapiens, UniProt P68871); assay: ROS-Glo H2O2 assay with Hb; format: biochemical; conditions: for remaining H2O2 normalized to no Hb: Fig. 2d
T1 construct: purchased Sigma-Aldrich H7379
Procedure: Hb (Sigma‒Aldrich, H7379), H2O2 (Sigma‒Aldrich, H1009), and Amplex Red reagents (Invitrogen, A12222) were obtained for the study. A 4 μM H2O2 solution was prepared in 50 mM sodium phosphate buffer (pH 7.2). Then, 49 μl of this mixture was mixed with 1 μl of the test compound in DMSO or distilled water. The mixture was combined with an assay mixture of Amplex Red reagent (20 mM stock to 0.1 mM) and HRP (200 U/ml stock to 0.2 U/ml) and added to the wells at 50 μl/well. After a 60-min incubation at 37 °C, resorufin production was quantified via a microplate fluorescence reader (SpectraMax iD5, Molecular Devices) at ex/em = 535/580 nm. […] For the ROS-Glo assay, the H2O2 substrate solution and ROS-Glo detection solution were prepared according to the manufacturer’s instructions. 10 μM H2O2 and drugs were prepared as in the Amplex Red assay, with HRP, Hb, CAT, or GPx added as needed. The mixture was added to the wells at 100 μl/well and incubated for 60 min at 37 °C. H2O2 substrate solution was added, and the mixture was incubated at room temperature for 30 min. After the H2O2 substrate solution was added and incubated at room temperature for 30 min, the ROS-Glo detection solution was added, and the mixture was incubated for 15 min. Luminescence was measured via iD5 microplate readers. […] The U/ml was calculated on the basis of the amount of H2O2 reduced by Hb during the reaction, using μg/ml and U/mg.
To evaluate the extent of peroxidase function facilitation by HTPEB (1 μM) and KDS12025 (1 μM) in HRP (0.2 U/ml) and Hb (10 μg/ml), we used the ROS-Glo assay over 30 and 60 min. The fold change was calculated by dividing the delta values during the 30-min reaction for the vehicle over drug conditions.
To assess enzyme activity, the amount of H2O2 consumed over a specific time was quantified alongside a standard curve. For the peroxidase function of Hb, Hb was administered at doses ranging from 0.01 to 112 U/ml and preincubated with H2O2 and either DMSO, HTPEB (1 μM), or KDS12025 (1 μM) at 37 °C for 30 min. The remaining H2O2 was measured via the ROS-Glo assay and normalized against conditions without Hb. The dose‒response curve, EC50, and EC20 for H2O2 decomposition were calculated and determined by fitting the data with GraphPad Prism software. The fitting method had no special handling of outliers, and least squares regression with confidence intervals of the parameters was 95%.

APP/PS1 mice = assay: Immunohistochemistry of hippocampus, APP/PS1 mice; format: in vivo, mouse; conditions: 3 mg/kg/day i.p.; for mean intensity of Iba1 in the hippocampus: Fig. S10e; for mean intensity of GFAP in the hippocampus: Fig. S10d
Procedure: For an animal model of AD, both sexes of 10- to 18-month-old APP/PS1 mice were maintained and used as previously described.[76],[77] To test the effects of novel H2O2-decomposing enhancers in the AD model, the mice were treated by i.p. injection with KDS12008 (3 mg/kg/day), KDS12017 (3 mg/kg/day), or KDS12025 (3 or 10 mg/kg/day) once per day for 1 or 2 weeks, depending on the experimental protocol. All drugs were dissolved in 200 μl of saline, and the amount of each drug was calculated on the basis of the weight (kg) of the mouse. Moreover, KDS12025 (3 mg/kg/day) was orally administered to the AD model for 2 weeks ad libitum.
The mice were deeply anesthetized with vaporized 1% isoflurane and placed into stereotaxic frames (RWD Life Science, China). Following an incision on the midline of the scalp, a hole was drilled into the skull above the hippocampus. AAV-GFAP104-GFP or AAV-GFAP104-DTR-GFP was bilaterally microinjected into the hippocampal CA1 region (AP, −2.0 mm; ML, ±1.5 mm; DV, −1.65 mm from the bregma). Diphtheria toxin (2 mg/ml) was administered for 16 days as previously described.[77] For shRNA knockdown, AAV-pSicoR-Hbβ-shRNA-mCherry or AAV-pSicoR-Sc-shRNA-mCherry was microinjected into the same coordinate system. A total of 0.8 µl of the virus was injected via a syringe pump (KD Scientific, USA). The injection procedures were implemented before 5 weeks of the experiments. For cell type-specific knockdown, AAV-pSico-Hbβ-shRNA-GFP or AAV-pSico-Sc-shRNA-GFP was combined with either AAV-CaMKII-Cre-mCherry for neuronal targeting or AAV-GFAP-Cre-mCherry for astrocyte targeting. The viruses were bilaterally injected into the hippocampus and substantia nigra via the same stereotaxic coordinates and injection procedures. All viruses used in this study were produced at the Institute for Basic Science virus facility (IBS virus facility, Korea). To investigate the effects of 0.1 mg/kg/day KDS12025, GiD mice were injected with diphtheria toxin (2 mg/ml) daily for 16 days. Concurrently, KDS12025 was administered ad libitum (0.1 mg/kg/day) during the same period.
The mice were deeply anesthetized with 2% isoflurane and positioned on the operating table. After the abdomen was opened and the heart was exposed, the […] were perfused with saline, followed by 4% paraformaldehyde (PFA) in 0.1 M PBS. The mice were decapitated, and the brains were excised from the skull. Excised brains were postfixed in 4% PFA overnight at 4 °C and dehydrated in 30% sucrose for 48 h. Coronal hippocampal sections were cut at 30 µm thickness with a cryostat and stored in storage solution. For the ALS experiments, lumbar spinal cords (L2–L5) were also carefully dissected and immediately immersed in 4% PFA for postfixation. The sections were fully washed in 0.1 M PBS and incubated for 1 h in blocking solution (0.3% Triton X-100, 2% donkey and goat serum in 0.1 M PBS). Next, a mixture of primary antibodies in the blocking solution was used for immunostaining on a shaker overnight at 4 °C. The sections were washed in PBS three times. After washing, the sections were incubated with the corresponding fluorescent secondary antibodies for 1 h at RT. DAPI staining was performed by adding a DAPI solution (1:2000) during the second washing step. After the washing step was complete, the sections were mounted on cover slides with mounting medium. A series of fluorescence images were obtained with an LSM900 (Zeiss, Germany) confocal microscope or Lattice SIM Elyra 7 (Zeiss, Germany). The 15–22 μm Z stack images in 1–2 μm steps were processed for image analysis, which was performed via the ImageJ (NIH, US) and ZEN digital imaging for light microscopy blue system (Zeiss, Germany) programs.

[1] = Tables S2, S3, read-out: HB-EC50
[2] = in the presence of Hb, Fig. 1h, read-out: EC50 with Hb (H2O2 decomposition)

T1 sequence (P68871 2-147 limits assumed): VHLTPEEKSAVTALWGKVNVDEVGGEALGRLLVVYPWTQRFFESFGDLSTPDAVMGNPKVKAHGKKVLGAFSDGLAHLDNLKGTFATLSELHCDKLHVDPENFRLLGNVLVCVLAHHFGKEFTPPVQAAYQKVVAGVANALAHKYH
T1 sequence (P69905 2-142 partner limits assumed): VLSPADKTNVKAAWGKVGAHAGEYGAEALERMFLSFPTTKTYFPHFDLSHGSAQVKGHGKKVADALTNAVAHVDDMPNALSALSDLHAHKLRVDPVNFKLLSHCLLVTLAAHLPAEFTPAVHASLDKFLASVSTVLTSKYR

For `O=C(O)c1cc(NCCc2ccc(C(F)(F)F)cc2)ccc1O` [HTPEB, 2-hydroxy-5-[2-(4-trifluoromethyl-phenyl)-ethylamino]-benzoic acid, reference compound], the “remaining H2O2 normalized to no Hb” value (Hb; Hb 0.01 U/ml) was 84.92±3.034, the “remaining H2O2 normalized to no Hb” value (Hb; Hb 0.1 U/ml) was 81.24±5.607 and the “remaining H2O2 normalized to no Hb” value (Hb; Hb 1 U/ml) was 70.82±3.83. The “fold change in H2O2 decomposition (Hb pseudoperoxidase activity per 0.5 h)” value (Hb; Hb, 30-min window, Fig. 2b) was 2.529±0.6645 fold, the EC50 (Hb; [1]) was 155 nM and the EC50 (Hb; [2]) was 150 nM. The “facilitation of H2O2 decomposition by Hb” value (Hb; with HTPEB, Fig. 1f) was 2 fold.
With `CN(C)c1ccc(NCCc2ccc(C(F)(F)F)cc2)cc1.Cl` [KDS12008, N^1,N^1-dimethyl-N^4-(4-(trifluoromethyl)phenethyl)benzene-1,4-diamine hydrochloride salt] the EC50 (Hb; [1]) was 67 nM, the “mean intensity of Iba1 in the hippocampus” value (APP/PS1 mice) was 1562±64.27 and the “mean intensity of GFAP in the hippocampus” value (APP/PS1 mice) was 2063±93.76.
`CNc1ccc(NCCc2ccc(C(F)(F)F)cc2)cc1.Cl` [KDS12017, N^1-methyl-N^4-(4-(trifluoromethyl)phenethyl)benzene-1,4-diamine hydrochloride salt] was tested, and the EC50 (Hb; [1]) was 86.2 nM, the EC50 (Hb; [2]) was 90 nM and the “mean intensity of Iba1 in the hippocampus” value (APP/PS1 mice) was 1556±53.65. The “mean intensity of GFAP in the hippocampus” value (APP/PS1 mice) was 1711±145.9.
